Source: patent US4276298A, “2-Aryl-1,2-benzisothiazolinone-1,1-dioxides and their use as selective protease inhibitors” (Merck & Co., Inc., priority 1979, dated 1981)
Where two headings read alike, the source gives them in different places.

Assays:
[1] = target: T1, Human PMN Elastase (Homo sapiens, UniProt P08246); assay: Human PMN elastase inhibition (Boc-AAPAN hydrolysis, 410 mμ); assay type: biochemical; settings: 0.2 mM Boc-AAPAN, pH 7.5, crude human PMN extract; read-out: ID50 Human PMN Elastase (converted)
T1 construct: Crude extract of human polymorphonuclear leukocytes (PMN) containing elastase activity; from tissue; host or cells: human polymorphonuclear leukocytes (crude extract)
T1 sequence (P08246 30-267): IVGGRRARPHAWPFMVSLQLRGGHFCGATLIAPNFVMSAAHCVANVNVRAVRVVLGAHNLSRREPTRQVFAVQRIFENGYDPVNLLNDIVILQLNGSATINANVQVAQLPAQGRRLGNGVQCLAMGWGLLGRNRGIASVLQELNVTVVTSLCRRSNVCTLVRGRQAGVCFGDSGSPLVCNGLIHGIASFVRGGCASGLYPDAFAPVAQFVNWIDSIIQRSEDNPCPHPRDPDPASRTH
Procedure: N-tris (hydroxymethyl) methyl-2-aminoethane sulfonic acid
0.2 mM N-t-Box-Alanyl-Alanyl-Prolyl-Alanine-p-nitroanilide=Boc-AAPAN
To prepare substrate, the solid (m.w. 550) was first dissolved in 10.0 ml. DMSO. Buffer at pH 7.5 was then added to a final volume of 100 ml.
Crude extract of human polymorphonuclear leukocytes (PMN) containing elastase activity.
(§1) Inhibitors to be tested dissolved in DMSO just before use.
To 1.0 ml. of 0.2 mM Box-AAPAN in a cuvette, 0.01-0.1 ml. of DMSO with or without inhibitor was added. After mixing, a measurement was taken at 410 mμ to detect any spontaneous hydrolysis due to presence of test compound. 0.05 ml. of PMN extract was then added and the ΔOD/min at 410 mμ was measured and recorded. A Gilford 240 or Beckman DB-G spectrophotomer was used.
Results were obtained as % inhibition produced by test compound as represented by the % decrease in ΔOD/min. of a control. The ID50 was then derived from the % inhibition curve.
The elastase activity in the crude PMN extract may vary from one preparation to another. A control of each new batch is run and the volume added in the assay procedure is adjusted according to activity.

[2] = target: T2, Chymotrypsin (Bos taurus, UniProt P00766); assay: Chymotrypsin inhibition (Ac-AAPPhN hydrolysis, 410 mμ); assay type: biochemical, bovine
T2 construct: purchased Worthington
Procedure: a-Chymotrypsin (Worthington, 3X crystallized, lyophilized) at 100 μg/ml in 0.001 M HCl (1 mg/ml by wt. diluted 1:10)
0.2 mM N-Acetyl-Alanyl-Alanyl-Prolyl-Phenylalanyl-p-nitroanilide=Ac-AAPPhN.To prepare substrate, the solid (M.W. 566) was first dissolved in 10.0 ml DMSO. Buffer at pH 7.5 was then added to a final volume of 100 ml.
as §1
To 1.0 ml of 0.2 mM Ac-AAPPhN in a cuvette, 0.01-0.05 ml of DMSO with or without inhibitor was added. After mixing, a measurement was taken at 410 mμ to detect any spontaneous hydrolysis due to the presence of test compound. 0.01 ml of α-chymotrypsin solution was then added and the ΔOD/min at […] was measured and recordeed. A Gilford 240 240 spectrophotometer was used.
Results were obtained as % inhibition produced by test compound as represented by the % decrease in ΔOD/min of a control. The ID50 was then derived from the % inhibition curve.

[3] = target: T3, Porcine Pancreatic Elastase (Sus scrofa, UniProt P00772); assay: Porcine pancreatic elastase inhibition (Boc-AAPAN hydrolysis, 410 mμ); assay type: biochemical; settings: 0.2 mM Boc-AAPAN, pH 7.5, purified PPE; read-out: ID50 Porcine Pancreatic Elastase (converted)
T3 construct: purchased Worthington
T3 sequence (P00772 27-266): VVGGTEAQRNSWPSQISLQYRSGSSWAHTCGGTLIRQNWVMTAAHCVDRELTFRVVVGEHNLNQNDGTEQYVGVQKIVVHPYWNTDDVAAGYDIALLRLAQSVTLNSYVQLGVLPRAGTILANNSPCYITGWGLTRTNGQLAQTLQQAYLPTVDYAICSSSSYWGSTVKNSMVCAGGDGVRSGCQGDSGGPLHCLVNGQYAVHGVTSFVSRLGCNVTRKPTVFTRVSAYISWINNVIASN
Procedure: PORCINE PANCREATIC ELASTASE:
Solution of purified porcine pancreatic elastase (PPE) (Worthington)
To 1.0 ml. of 0.2 mM Box-AAPAN in a cuvette, 0.01-0.1 ml. of DMSO with or without inhibitor was added. After mixing, a measurement was taken at 410 mμ to detect any spontaneous hydrolysis due to presence of test compound. 0.05 ml. of PPE extract was then added and the ΔOD/min at 410 m° was measured and recorded. A Gilford 240 or Beckman DB-G spectrophotometer was used.
The elastase activity in the crude PPE extract may vary from one preparation to another. A control of each new batch is run, and the volume added in the assay procedure is adjusted according to activity.

[4] = target: T4, Trypsin (Bos taurus, UniProt P00760); assay: Trypsin inhibition (BAPA hydrolysis, 410 mμ); assay type: biochemical, bovine
T4 construct: purchased Worthington TRL
T4 sequence (P00760 24-246): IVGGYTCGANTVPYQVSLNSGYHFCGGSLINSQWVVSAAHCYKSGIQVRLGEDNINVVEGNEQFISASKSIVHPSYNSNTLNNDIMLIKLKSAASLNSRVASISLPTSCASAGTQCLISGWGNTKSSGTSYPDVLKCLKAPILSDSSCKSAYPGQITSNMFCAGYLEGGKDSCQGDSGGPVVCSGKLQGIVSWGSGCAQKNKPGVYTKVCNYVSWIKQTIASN
Procedure: Trypsin (Worthington-TRL, 2X crystallized, lyophilized) at 1.0 mg/ml by wt. in 0.001 M HCl.
1.0 mN N-Benzoyl-DL-Arginine-p-nitroanilide (Bachem)=BAPA. The substrate was prepared by dissolving solid (M.W. 435) in 10 ml. DMSO. Buffer, at pH 7.5, was added to a total volume of 100 ml.
Inhibitors dissolved in DMSO just before use.
To 1.0 ml of 1.0 mM BAPA in a cuvette, 0.01-0.05 ml of DMSO with or without inhibitor was added. After mixing, a measurement was taken at 410 mμ to detect any spontaneous hydrolysis due to the presence of test compound. 0.01 ml of trypsin solution was then added and the ΔOD/min at 410 mμ was measured and recorded. A Gilford 240 spectrophotometer was used.

[5] = test system: papain; settings: cited from earlier work
[6] = test system: trypsin, chymotrypsin, plasmin, kallikrein, elastase, and thrombin; settings: glycoprotein in human serum; cited from earlier work
[7] = test system: Papain induced emphysema; settings: hamster; cited from earlier work
[8] = target: T5, Human PMN Cathepsin G (Homo sapiens, UniProt P08311); assay: Human PMN cathepsin G inhibition (BTNP hydrolysis, 347.5 mμ); assay type: biochemical; settings: 0.2 mM BTNP, pH 6.5, purified human PMN extract; read-out: ID50 Human PMN Cathepsin G (converted)
T5 construct: Purified extract of human polymorphonuclear leukocytes (PMN) containing chymotrypsin-like activity; from tissue; host or cells: human polymorphonuclear leukocytes (purified extract)
T5 sequence (P08311 21-255): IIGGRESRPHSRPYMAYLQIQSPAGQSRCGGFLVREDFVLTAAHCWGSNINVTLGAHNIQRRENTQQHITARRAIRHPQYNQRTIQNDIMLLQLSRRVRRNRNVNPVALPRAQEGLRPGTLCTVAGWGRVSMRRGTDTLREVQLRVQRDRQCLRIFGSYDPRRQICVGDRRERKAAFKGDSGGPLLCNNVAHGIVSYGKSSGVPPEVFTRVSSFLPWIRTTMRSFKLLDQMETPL
Procedure: 0.05 M PIPES buffer [piperazine-N,N'-bis(2-ethanesulfonic acid), mono-sodium salt, monohydrate], pH 6.5.
0.2 mM t-Box-L-Tyrosine-p-Nitrophenyl ester=BTNP
Purified extract of human polymorphonuclear leukocytes (PMN) containing chymotrypsin-like activity.
To 1.0 ml of 0.2 mM BTNP in a cuvette, 0.01-0.1 ml of DMSO with or without inhibitor was added. After mixing, a measurement was taken at 347.5 mμ to detect any spontaneous hydrolysis due to the presence of test compound. 0.01 ml of PMN extract was then added and the ΔOD/min at 347.5 mμ was measured and recorded. A Gilford 240 or Beckman DB-G spectrophotometer was used.
To prepare substrate, 8.0 mg of solid (m.w. 402) was first dissolved in 10.0 ml DMSO. Buffer at pH 6.5 was then added to a final volume of 100 ml. Final DMSO concentration was 10%. Substrate prepared in this manner is stable for 3-4 hours at room temperature.
All activites were tested for reactivity with nitrophenol. The test is invalid if the test compound reacts with nitrophenol.

[9] = 0.2 mM Ac-AAPPhN, pH 7.5, α-chymotrypsin, read-out: ID50 Chymotrypsin (converted)
[10] = 1.0 mM BAPA, pH 7.5, read-out: ID50 Trypsin (converted)

Row | Compound | IC50 [1] [µM] | IC50 [2] [µM] | IC50 [3] [µM] | IC50 [4] [µM] | inhibition of papain [5] | inhibitory spectrum [6] | inhibition of papain induced emphysema [7] | IC50 [2, 9] [µM] | IC50 [4, 10] [µM] | IC50 [8] [µM]
1 | O=C1c2ccccc2S(=O)(=O)N1c1ccc([N+](=O)[O-])cc1 [reference compound] | 164 | 329 | 329 | 329 |  |  |  |  |  | 
2 | O=C1c2ccccc2S(=O)(=O)N1c1ccc([N+](=O)[O-])cc1[N+](=O)[O-] | 2.86 | 1.43 | 143 | 143 |  |  |  |  |  | 
3 | α1 -Antitrypsin: a glycoprotein in human serum |  |  |  |  | not inhibited | wide inhibitory spectrum | inhibited |  |  | 
4 | CCC(CC)C(=O)N1C(=O)c2ccccc2S1(=O)=O [reference compound] | 0.355 |  | 1.07 |  |  |  |  | 0.142 | 3.55 | 
5 | N#Cc1ccc(N2C(=O)c3ccccc3S2(=O)=O)c(C#N)c1 | 4.85 |  | 162 |  |  |  |  | 3.23 | 162 | 162
6 | O=C1c2ccccc2S(=O)(=O)N1c1ncccc1[N+](=O)[O-] | 1.64 |  | 65.5 |  |  |  |  | 0.655 | 65.5 | 
7 | N#Cc1cc([N+](=O)[O-])ccc1N1C(=O)c2ccccc2S1(=O)=O | 3.04 |  | 60.7 | 60.7 |  |  |  | 0.607 |  | 45.6
8 | C=CC(=O)N1C(=O)c2ccccc2S1(=O)=O [reference compound] | 0.422 |  | 0.843 |  |  |  |  | 0.295 | 1.69 | 4.22
9 | O=C(c1cccs1)N1C(=O)c2ccccc2S1(=O)=O [reference compound] | 0.341 | 0.682 | 0.682 |  |  |  |  |  | 0.0682 | 
10 | N#Cc1ccc(N2C(=O)c3ccccc3S2(=O)=O)nc1 | 10.5 |  |  |  |  |  |  | 59.6 |  | 
11 | O=C(c1ccco1)N1C(=O)c2ccccc2S1(=O)=O [reference compound] | 0.361 |  | 0.721 |  |  |  |  | 0.0721 | 1.8 | 
12 | O=C1c2ccccc2S(=O)(=O)N1c1c(F)c(F)c(F)c(F)c1F | 2.86 | 143 | 143 | 143 |  |  |  |  |  | 
